Source: paper PMC5587909, “Inhibition of the ATP Synthase Eliminates the Intrinsic Resistance of Staphylococcus aureus towards Polymyxins” (mBio, 2017)
≈ marks a conversion by molar mass, not a printed value.

Tests used:
Experiment in all cases: microbe, parasite or virus in culture
[1] = tested on: S. aureus JE2 graR transposon mutant (SAUSA300_0645)
Description: (§1) Staphylococcus aureus is intrinsically resistant to the clinically approved cationic antimicrobial peptides polymyxin B (PMB) and colistin ([1], [16]). […] The MIC for PMB was subsequently determined using Etests for the identified mutants.
(§2) The strains used in this study include S. aureus strain JE2 (plasmid-cured derivative of USA300 LAC) and all derivative strains within the Nebraska Transposon Mutant Library (NTML), consisting of 1,920 unique transposon mutants with inactivation of nonessential genes ([15]). The bursa aurealis transposon used to create the collection contains the resistance cassette ermB, which confers resistance to erythromycin ([15]). Additionally we used S. aureus SA113 and two derivatives, SA113 ΔdltA ([9]) and SA113 ΔmprF ([10]). All bacterial strains were cultured at 37°C in tryptic soy broth (TSB) or on tryptic soy agar (TSA), with antimicrobial agents added as indicated. Two methods have been employed to determine MICs to various antimicrobial agents. (i) A 2-fold broth microdilution assay in TSB (100 µl) with an initial inoculum of approximately 5 × 10^5 cells/ml was employed to determine the MICs of polymyxin B sulfate (Sigma), gallidermin (Santa Cruz Biotechnology), nisin (Sigma), bacitracin (Sigma), and LL-37 (Isca Biochemicals). […] The MIC was determined upon incubation at 37°C for 22 h. […]

[2] = tested on: S. aureus JE2 atpA transposon mutant (SAUSA300_2060)
Description: as §1, §2

[3] = tested on: S. aureus JE2 (wild type); conditions: 22 h; for MIC: Staphylococcus aureus, read-out: MIC, WT
Description: as §1, §2

[4] = tested on: S. aureus JE2 vraF transposon mutant (SAUSA300_0647)
Description: as §1, §2

[5] = tested on: S. aureus JE2 vraG transposon mutant (SAUSA300_0648)
Description: as §1, §2

CNC(C)C1CCC(N)C(OC2C(N)CC(N)C(OC3OCC(C)(O)C(NC)C3O)C2O)O1 (stereo not shown) [Gentamicin, gentamicin]
MIC ([1]; Staphylococcus aureus, 22 h, read-out: MIC, graR): 0.5 µg/mL (≈ 1.05 µM)
fold reduction in MIC / increased sensitivity relative to WT ([1]; {}): 3-6 fold
MIC ([2]; Staphylococcus aureus, 22 h, read-out: MIC, atpA): 0.094 µg/mL (≈ 0.197 µM)
fold reduction in MIC / increased sensitivity relative to WT ([2]; {}): 16 fold
MIC [3]: 1.5 µg/mL (≈ 3.14 µM)
MIC ([4]; Staphylococcus aureus, 22 h, read-out: MIC, vraF): 0.38 µg/mL (≈ 0.796 µM)
fold reduction in MIC / increased sensitivity relative to WT ([4]; {}): 3-6 fold
MIC ([5]; Staphylococcus aureus, 22 h, read-out: MIC, vraG): 0.25 µg/mL (≈ 0.523 µM)
fold reduction in MIC / increased sensitivity relative to WT ([5]; {}): 3-6 fold

CC(=O)NC[C@H]1CN(c2ccc(N3CCOCC3)c(F)c2)C(=O)O1 [Linezolid, linezolid]
MIC [3]: 2 µg/mL (≈ 5.93 µM)

Cc1onc(-c2ccccc2)c1C(=O)N[C@@H]1C(=O)N2[C@@H]1SC(C)(C)[C@@H]2C(=O)O [Oxacillin, oxacillin]
MIC [3]: 0.5 µg/mL (≈ 1.25 µM)

CN[C@H](CC(C)C)C(=O)N[C@H]1C(=O)N[C@@H](CC(N)=O)C(=O)N[C@H]2C(=O)N[C@H]3C(=O)N[C@H](C(=O)N[C@H](C(=O)O)c4cc(O)cc(O)c4-c4cc3ccc4O)[C@H](O)c3ccc(c(Cl)c3)Oc3cc2cc(c3O[C@@H]2O[C@H](CO)[C@@H](O)[C@H](O)[C@H]2O[C@H]2C[C@](C)(N)[C@H](O)[C@H](C)O2)Oc2ccc(cc2Cl)[C@H]1O [Vancomycin, vancomycin]
MIC, graR ([1]; conventional antibiotics (Table 3), Etest on TSA, 37°C, 22 h, graR mutant): 1 µg/mL (≈ 0.69 µM)
MIC, atpA ([2]; conventional antibiotics (Table 3), Etest on TSA, 37°C, 22 h, atpA mutant): 1.500 µg/mL (≈ 1.04 µM)
MIC, WT ([3]; conventional antibiotics (Table 3), Etest on TSA, 37°C, WT JE2): 1.5 µg/mL (≈ 1.04 µM)
MIC, vraF ([4]; conventional antibiotics (Table 3), Etest on TSA, 37°C, 22 h, vraF mutant): 0.75 µg/mL (≈ 0.518 µM)
MIC, vraG ([5]; conventional antibiotics (Table 3), Etest on TSA, 37°C, 22 h, vraG mutant): 1 µg/mL (≈ 0.69 µM)
